For one test, the system named is IGF-1. The experiment in a line: IGF-1 expression in primary microglial cultures, immunocytochemistry. In kind it is cell-based, C57Bl/6J mice. The protocol:
Primary microglial culture. Brains from neonatal (P0-P1) C57Bl/6J mice were stripped of their meninges and minced with scissors under a dissecting microscope (Zeiss, Stemi DV4, Germany) in Leibovitz-15 medium (Biological Industries, Beit Ha-Emek, Israel). After trypsinization (0.5% trypsin, 10 min, 37° C./5% CO2), the tissue was triturated. The cell suspension was washed in culture medium for glial cells (DMEM supplemented with 10% fetal calf serum (FCS; Sigma-Aldrich, Rehovot, Israel), 1-glutamine (1 mM), sodium pyruvate (1 mM), penicillin (100 U/ml), and streptomycin ([…])) and cultured at 37° C./5% CO2 in 75-cm2 Falcon tissue-culture flasks (BD Biosciences) coated with poly-D-lysine (PDL) ([…]; Sigma-Aldrich, Rehovot) in borate buffer (2.37 g borax and 1.55 g boric acid dissolved in 500 ml sterile water, pH 8.4) for 1 h, then rinsed thoroughly with sterile, glass-distilled water. Half of the medium was changed after 6 h in culture and every 2nd day thereafter, starting on day 2, for a total culture time of 10-14 days. […]

The subject of a further test is human T cells. The experiment in a line: T-cell chemotaxis towards SDF-1α, transwell. In kind it is cell-based. As to conditions: 2 h pretreatment, FN-coated transwell, 3 h, relative to untreated cells. The protocol:
Human T cells. T cells from the peripheral blood of healthy donors were isolated by negative selection using a RosetteSep™ antibody cocktail containing mabs against CD16, CD19, CD36, and CD56 (StemCell Technologies, Vancouver, BC). After incubation with the cocktail for 20 min at room temperature, blood samples were diluted in PBS with 2% fetal bovine serum, loaded on a Ficoll column (ICN Biomedical, Aurora, Ohio), and centrifuged at 1200× g for 20 min at room temperature. The cells were removed from the Ficoll column, washed, and cultured in RPMI containing antibiotics and 10% heat-inactivated FCS. T-cell chemotaxis. Migration of purified human T cells was measured with a transwell apparatus (6.5 mm diameter; Corning, New York, N.Y.) fitted with polycarbonate filters (pore size 5 μm). The filters separating the upper and lower chambers were pretreated with FN (20 μg/ml) for 1 h at 37° C. ^51[Cr]-labeled T cells were preincubated for 2 h with CSPG-DS at the indicated concentrations, and then suspended (2×10^6/ml) in RPMI containing 0.1% BSA, 0.1% L-glutamine, and antibiotics, and added to the upper chamber. The bottom chambers contained the same RPMI medium, with or without human SDF-1α (50 ng/ml). […]

The next test deals with MHC II. Description: MHC II expression in microglia. In kind it is cell-based.
In test [1] the test system is retinal ganglion cells (RGCs). The experiment in a line: Chronically high intra-ocular pressure (laser-induced glaucoma) rat model, RGC survival. In kind it is in vivo, Lewis rats. The settings on record: chronic IOP rats. The text has this: Induction of chronically high intra-ocular pressure: Blockage of aqueous outflow causes an increase in IOP, which results in RGC death (Schori et al., 2001 and Bakalash et al., 2002). […] The laser beam, which was directed at three of the four episcleral veins and at 270 degrees of the limbal plexus, was applied with a power of 1 watt for 0.2 s, producing a spot size of […] at the episcleral veins and […] at the limbal plexus. At a second laser session 1 week later, the same parameters were used except that the spot size was […] for all applications, this time the radiation was directed towards all four episcleral veins and 360 degrees of the limbal plexus (Schori et al., 2001).
Anatomical assessment of retinal damage caused by the increase in IOP: The hydrophilic neurotracer dye dextran tetramethylrhodamine (Rhodamine Dextran) (Molecular Probes, Oreg., USA) was applied directly into the intra-orbital portion of the optic nerve. […] RGCs were counted under magnification of ×800 in a Zeiss fluorescent microscope. Four fields from each retina were counted, all with the same diameter (0.076 mm^2) and located at the same distance from the optic disc (Kipnis et al., 2001; and Yoles et al., 2001). […] RGCs were counted by an observer who was blinded to the identity of the retinas. […]

Test [2] deals with delayed-type hypersensitivity response in mice. The experiment in a line: Delayed-type hypersensitivity (DTH) assay, ear swelling. In kind it is in vivo. The settings on record: oxazalone-sensitized Balb/c mice, most efficient concentration of 1 μg/ml, relative to untreated. The protocol: Assay for delayed-type hypersensitivity. Groups of female inbred Balb/c mice (n=4 per group) were sensitized with 2% oxazalone (100 μl;) dissolved in acetone/olive oil (4:1 (vol/vol)) applied topically on the shaved abdominal skin. A delayed-type hypersensitivity (DTH) response was elicited 5 days later by challenge with 0.5% oxazalone in acetone/olive oil (10 μl applied topically to each side of one ear, and measured with an engineer's micrometer (Mitutoyo, Elk Grove Village, Ill., Tokyo, Japan)). Immediately before and 24 h after antigen challenge, the marked area was measured again.

SMILES strings stand for the structures.

The record followed here is US20070010484A1, “Method for treating or inhibiting the effects of injuries or diseases that result in neuronal degeneration and method for promoting neurogenesis” (YEDA RESEARCH AND DEVELOPMENT CO. LTD., priority 2003, published 2007).

On to `CC(=O)N[C@H]1C(O)O[C@H](COS(=O)(=O)O)[C@H](O)[C@@H]1O[C@@H]1OC(C(=O)O)=C[C@H](O)[C@H]1O` (stereo partly drawn) [CSPG-DS, 2-acetoamido-2-deoxy-3-O-(β-D-gluco-4-enepyranosyluronic acid)-6-O-sulfo-D-galactose], for which the “LPS-induced suppression of IGF-I expression” value in the test with IGF-1 (microglia pre-incubated with CSPG-DS (25 or 50 μg/ml) 1 h, then LPS 24 h) was “attenuated”. Besides, the “IGF-1 expression by microglia” value with IGF-1 (mouse primary microglia) is on record as “high levels”. Also, the “T-cell migration towards SDF-1α” value in the test with human T cells was “reduced”. Further, the “MHC II expression in microglia” value with MHC II was “activate microglia to express MHC II”. Moreover, the “viable RGCs per mm^2” value in test [1] (eye drops 20 μg/ml (5 x 50 μl), every other day between day 7 and day 14, counted at three weeks, n=6) is reported as 1924±191 RGCs per mm^2; in test [1] (intravenous, every other day between day 7 and day 14 after first laser session, n=5), 2063±215 RGCs per mm^2. For the same compound, the “reduction in DTH response” value in test [2] was 40%.
